Measured values: US9839642B2, “Beta-tetrazolyl-propionic acids as metallo-beta-lactamase inhibitors” (priority 2014, dated 2017)
Where two headings read alike, the source gives them in different places.

Tests used:
IMP-1 = IMP-1 (Serratia marcescens, UniProt P52699); experiment: Enzyme activity: determination of IC50, fluorescence assay with CCF2-FA substrate; type: biochemical; details: CCF2-FA 1.25 μM, 2 hours at 25° C., read-out: IMP1 IC50
Outline: (§1)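 100 mM KH2PO4 pH 7 + 0.005% Tween-20 + 10 μM ZnSO4; CCF2-FA 1.25 μM; NDM-1 1 pM, IMP-1 2 pM, VIM-1 30 pM; cpd 20–0.00063 μM final, DMSO 1:50. 2 h, 25° C. Ex 405/em 460 nm; IC50, 4-param fit.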

NDM-1 = NDM-1 (Klebsiella pneumoniae, UniProt C7C422); experiment: as above; type: biochemical; details: CCF2-FA 1.25 μM, 2 hours at 25° C., read-out: NDM1 IC50
Chain of NDM-1 (C7C422 29-270, looked up, species assumed): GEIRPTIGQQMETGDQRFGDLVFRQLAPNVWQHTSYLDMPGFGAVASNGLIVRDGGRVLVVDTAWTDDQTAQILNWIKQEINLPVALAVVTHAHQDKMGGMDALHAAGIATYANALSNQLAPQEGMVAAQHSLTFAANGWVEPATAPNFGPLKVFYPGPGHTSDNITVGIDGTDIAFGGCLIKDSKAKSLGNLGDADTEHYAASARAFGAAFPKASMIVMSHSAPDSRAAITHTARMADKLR
Outline: as §1

VIM-1 = VIM-1 (Pseudomonas aeruginosa, UniProt A0A0F7KYQ8); experiment: as above; type: biochemical; details: CCF2-FA 1.25 μM, 2 hours at 25° C., read-out: VIM1 IC50
Outline: as §1

[1] = test system: Escherichia coli expressing NDM-1 (CLB30016); experiment: Antibiotic potentiation activity: synergistic concentration (MITC95) with imipenem, growth by OD600; type: cell-based
Outline: (§2)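 MITC95 = lowest inhibitor concentration giving 95% growth inhibition, read by absorbance after 22–24 h at 35° C. Compound range 200 μM to 0.195 μM, imipenem fixed at 1 or 4 μg/ml, bacteria in 1.1×CAMHB from saline suspension diluted 1:100.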

[2] = test system: Klebsiella pneumoniae expressing VIM-1 (IHMA599644); experiment: as above; type: cell-based
Outline: as §2

[3] = test system: Serratia marcescens expressing IMP-1 (CL5741); experiment: as above; type: cell-based
Outline: as §2

[4] = 95% inhibition of bacterial growth, strain CLB30016
[5] = 95% inhibition of bacterial growth, strain IHMA599644
[6] = 95% inhibition of bacterial growth, strain CL5741
[7] = E. coli CLB30016 (NDM-1), 95% inhibition of growth
[8] = K. pneumoniae IHMA599644 (VIM-1), 95% inhibition of growth
[9] = S. marcescens CL5741 (IMP-1), 95% inhibition of growth

Chain of IMP-1 (P52699 19-246, looked up, species assumed): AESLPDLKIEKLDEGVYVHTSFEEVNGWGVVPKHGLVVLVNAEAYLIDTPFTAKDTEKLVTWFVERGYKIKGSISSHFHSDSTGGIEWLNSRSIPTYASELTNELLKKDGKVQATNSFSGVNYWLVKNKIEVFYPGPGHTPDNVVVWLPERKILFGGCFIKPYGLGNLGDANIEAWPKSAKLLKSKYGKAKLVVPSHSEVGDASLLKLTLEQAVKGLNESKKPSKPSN

Row | SMILES | IC50 (IMP-1; enzyme 2 pM) | IC50 (NDM-1; enzyme 1 pM) | IC50 (VIM-1; enzyme 30 pM) | NDM1 EC30016 MITC95 [1, 4] | VIM1 KP599644 MITC95 [2, 5] | IMP1 SM5741 MITC95 [3, 6] | IC50 (IMP-1; IMP-1 enzyme 2 pM) | IC50 (NDM-1; NDM-1 enzyme 1 pM) | IC50 (VIM-1; VIM-1 enzyme 30 pM) | NDM1 EC30016 MITC95 [1, 7] | VIM1 KP599644 MITC95 [2, 8] | IMP1 SM5741 MITC95 [3, 9]
1 | CCC[C@H](C(=O)O)[C@H](Cc1ccc(-c2ccc3c(c2)OCC(=O)N3)cn1)c1nnn[nH]1 [Example 169, (2S)-2-[(1S)-2-[5-(3-oxo-3,4-dihydro-2H-1,4-benzoxazin-7-yl)pyridin-2-yl]-1-(1H-tetrazol-5-yl)ethyl]pentanoic acid] | 1600 nM | 88 nM | 38 nM | 18.8 µM | 200 µM | 100 µM | – | – | – | – | – | –
2 | CC(C)[C@H](C(=O)O)[C@H](Cc1ccc(-c2ccc(N)nc2)cc1)c1nnn[nH]1 [Example 73, (2S,3S)-4-(4-(6-aminopyridin-3-yl)phenyl)-2-isopropyl-3-(1H-tetrazol-5-yl)butanoic acid] | 40 nM | 4.4 nM | 7.1 nM | 18.8 µM | 37.5 µM | 1.2 µM | – | – | – | – | – | –
3 | CCC[C@H](C(=O)O)[C@H](Cc1ccc(C2CCNC2)nc1)c1nnn[nH]1 (stereo partly drawn) [Example 409, (2S)-2-((1S)-2-(6-(pyrrolidin-3-yl)pyridin-3-yl)-1-(1H-tetrazol-5-yl)ethyl)pentanoic acid] | – | – | – | – | – | – | 19800 nM | 810 nM | 14 nM | 12.5 µM | 25 µM | 200 µM
4 | CC(C)C[C@H](C(=O)O)[C@H](Cc1ccc(N2CC3(CN(C)C(=O)O3)C2)nc1)c1nnn[nH]1 [Example 337, (2S)-4-methyl-2-[(1S)-2-[6-(7-methyl-6-oxo-5-oxa-2,7-diazaspiro[3.4]oct-2-yl)pyridin-3-yl]-1-(1H-tetrazol-5-yl)ethyl]pentanoic acid] | – | – | – | – | – | – | 300 nM | 62 nM | 10 nM | 9.4 µM | 75 µM | 18.8 µM
5 | CC(C)C[C@H](C(=O)O)[C@H](Cc1ccc(-c2ccc(CO)cc2)cn1)c1nn[nH]n1 [Example 171, (2S)-2-[(1S)-2-{5-[4-(hydroxymethyl)phenyl]pyridin-2-yl}-1-(2H-tetrazol-5-yl)ethyl]-4-methylpentanoic acid] | 740 nM | 47 nM | 56 nM | 75 µM | 200 µM | 62 µM | – | – | – | – | – | –
6 | CCC[C@H](C(=O)O)[C@H](Cc1ccc(Cl)cc1)c1nnn[nH]1 [Example 263, (2S)-2-[(1S)-2-(4-chlorophenyl)-1-(1H-tetrazol-5-yl)ethyl]pentanoic acid] | – | – | – | – | – | – | 430 nM | 57 nM | 2.4 nM | 9.4 µM | 9.4 µM | 12.5 µM
7 | CCC[C@H](C(=O)O)[C@H](Cc1cccc(-c2cnc(N)c(F)c2)c1)c1nn[nH]n1 [Example 356, (2S)-2-[(1S)-2-[3-(6-amino-5-fluoropyridin-3-yl)phenyl]-1-(2H-tetrazol-5-yl)ethyl]pentanoic acid] | – | – | – | – | – | – | 170 nM | 6.2 nM | 1.5 nM | 25 µM | 18.8 µM | 4.7 µM
8 | CCC[C@H](C(=O)O)[C@H](Cc1cccc(-c2cccc(C3CCCNC3)c2)c1)c1nn[nH]n1 (stereo partly drawn) [Example 345, (2S)-2-[(1S)-2-(3′-piperidin-3-ylbiphenyl-3-yl)-1-(2H-tetrazol-5-yl)ethyl]pentanoic acid] | – | – | – | – | – | – | 270 nM | 39 nM | 1.7 nM | 25 µM | 18.8 µM | 6.2 µM
9 | CC(C)C[C@H](C(=O)O)[C@H](Cc1ccc(Oc2cccc(CN)c2)nc1)c1nn[nH]n1 [Example 400, (2S)-2-[(1S)-2-{6-[3-(aminomethyl)phenoxy]pyridin-3-yl}-1-(2H-tetrazol-5-yl)ethyl]-4-methylpentanoic acid] | – | – | – | – | – | – | 750 nM | 340 nM | 42 nM | 12.5 µM | 50 µM | 25 µM
10 | CCC[C@H](C(=O)O)[C@H](Cc1cccc(N2CCCCC2)c1)c1nn[nH]n1 [Example 368, (2S)-2-[(1S)-2-(3-piperidin-1-ylphenyl)-1-(2H-tetrazol-5-yl)ethyl]pentanoic acid] | – | – | – | – | – | – | 740 nM | 46 nM | 9.7 nM | 25 µM | 50 µM | 37.5 µM
11 | CCC[C@H](C(=O)O)[C@H](Cc1ccc(N2CCN(c3ccccc3)CC2)cc1)c1nn[nH]n1 [Example 226, (2S)-2-[(1S)-2-[4-(4-phenylpiperazin-1-yl)phenyl]-1-(2H-tetrazol-5-yl)ethyl]pentanoic acid] | 39 nM | 20 nM | 66 nM | 38 µM | >200 µM | 3.1 µM | – | – | – | – | – | –
12 | CCC[C@H](C(=O)O)[C@H](Cc1cnc(N(C)C)nc1)c1nnn[nH]1 [Example 290, (S)-2-((S)-2-(2-(dimethylamino)pyrimidin-5-yl)-1-(1H-tetrazol-5-yl)ethyl)pentanoic acid] | – | – | – | – | – | – | 14000 nM | 110 nM | 2.1 nM | 18.8 µM | 38 µM | 150 µM
13 | CCC[C@H](C(=O)O)[C@H](Cc1ccc(NCCn2ccnn2)cc1)c1nn[nH]n1 [Example 221, (2S)-2-[(1S)-1-(2H-tetrazol-5-yl)-2-(4-{[2-(1H-1,2,3-triazol-1-yl)ethyl]amino}phenyl)ethyl]pentanoic acid] | 220 nM | 84 nM | 27 nM | 31 µM | 100 µM | 16 µM | – | – | – | – | – | –
14 | CCC[C@H](C(=O)O)[C@H](Cc1nnc(N)s1)c1nnn[nH]1 [Example 284, (S)-2-((S)-2-(5-amino-1,3,4-thiadiazol-2-yl)-1-(1H-tetrazol-5-yl)ethyl)pentanoic acid] | – | – | – | – | – | – | > 20000 nM | 13000 nM | 340 nM | 25 µM | 38 µM | >200 µM
15 | CC(C)C[C@H](C(=O)O)[C@H](Cc1ccc(N[C@H]2CC[C@H](N)C2)nc1)c1nnn[nH]1 [Example 317, (2S)-2-[(1S)-2-(6-{[(1S,3S)-3-aminocyclopentyl]amino}pyridin-3-yl)-1-(1H-tetrazol-5-yl)ethyl]-4-methylpentanoic acid] | – | – | – | – | – | – | 1600 nM | 350 nM | 14 nM | 1.6 µM | 18.8 µM | 12.5 µM
16 | CC(C)[C@H](C(=O)O)[C@H](Cc1ccc(N2CCC[C@@H]2CO)nc1)c1nnn[nH]1 [Example 127, (2S,3S)-4-(6-((R)-2-(hydroxymethyl)pyrrolidin-1-yl)pyridin-3-yl)-2-isopropyl-3-(1H-tetrazol-5-yl)butanoic acid] | 10000 nM | 320 nM | 280 nM | 12.5 µM | 200 µM | 200 µM | – | – | – | – | – | –
17 | CCC[C@H](C(=O)O)[C@H](Cc1ccc(C(F)(F)F)cc1)c1nnn[nH]1 [Example 153, (S)-2-((S)-1-(1H-tetrazol-5-yl)-2-(4-(trifluoromethyl)phenyl)ethyl)pentanoic acid] | 510 nM | 58 nM | 2.1 nM | 9.4 µM | 25 µM | 25 µM | – | – | – | – | – | –
18 | CC(C)(C)[C@H](C(=O)O)[C@H](Cc1ccc(C2=CCNC2)nc1)c1nnn[nH]1.O=C(O)C(F)(F)F [Example 429, 3-(5-((2S,3R)-3-carboxy-4,4-dimethyl-2-(1H-tetrazol-5-yl)pentyl)pyridin-2-yl)-2,5-dihydro-1H-pyrrol-1-ium 2,2,2-trifluoroacetate] | – | – | – | – | – | – | 615 nM | 781 nM | 23.8 nM | 12.5 µM | 25 µM | 18.75 µM
19 | CCC[C@H](C(=O)O)[C@H](Cc1ccc(-c2nnn[nH]2)cc1)c1nn[nH]n1 [Example 44, (S)-2-((S)-2-(4-(1H-tetrazol-5-yl)phenyl)-1-(2H-tetrazol-5-yl)ethyl)pentanoic acid] | 640 nM | 21 nM | 5.5 nM | 150 µM | 200 µM | 18.8 µM | – | – | – | – | – | –
